Measured values published in patent US11925629B2, “Heterocyclic inhibitors of ERK1 and ERK2 and their use in the treatment of cancer” (Asana Biosciences, LLC, priority 2015, dated 2024).
Read-outs that look alike come from different tables or passages of the source.

Key:
Assay type in all cases: cell-based, human
[1] = system: HT-29 (colorectal carcinoma, B-RafV600E) cells; assay: Cell proliferation (Alamar Blue) assay, HT-29; settings: Homo sapiens, HT-29, HT29 cells
Method in brief: (§1)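 Cells seeded at 5000/well and allowed 16-24 h at 37° C./5% CO2, then exposed to 3-fold serial dilutions (typically 0.0005 to 10 uM) for 72 h. Viability read by Alamar Blue (1×, 1-3 h) fluorescence at 540/590 nm; IC50 from variable-slope sigmoidal fit.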

[2] = system: HCT116 (colorectal carcinoma, K Ras G13D) cells; assay: Cell proliferation (Alamar Blue) assay, HCT116; settings: Homo sapiens, HCT-116, HCT116 cells
Method in brief: as §1

[3] = system: phosphorylation of RSK1(S380) (the downstream target of ERK1/2); assay: Phospho-RSK1(S380) ELISA assay in HT-29 cells; settings: Homo sapiens, HT-29, HT29 cells, read-out: Mechanistic Cell Assay RSK1 Phos HT29 IC50
Experimental: Phospho-RSK1(S380) ELISA Assay
HT-29 cells (colorectal carcinoma, B-RafV600E); obtained from ATCC, USA) were seeded (60,000 cells/well) in a 96-well plate and incubated at 37° C./5% CO2 overnight and then treated with desired compound dilutions for 2 h. Medium was removed and cells were rinsed once with ice-cold 1×PBS, then 0.070 mL ice-cold 1× cell lysis buffer containing 1 mM PMSF was added to each well and the plate was incubated on a shaker for 2 h and 30 min at 4° C. The plate was then centrifuged for 20 min (×4000 rpm) at 4° C. and the supernatant was transferred to a new plate. Cell lysates were diluted with sample diluent at a ratio of 1:1. The ELISA was then carried out following the manufacturer's protocol (PathScan® phospho-RSK1(Ser380) Sandwich ELISA Kit, Cell Signaling Technologies). The plate was read at 450 nm within 30 min after adding STOP solution. The IC50 values were subsequently determined using a sigmoidal dose-response curve (variable slope) in GraphPad Prism® 5 software.

Structure (SMILES) | IC50 [1] | IC50 [2] | IC50 ([3]; phospho-RSK1(S380)) | IC50 [3]
Cc1cnc(Nc2ccc(F)c(N3CCOCC3)c2)nc1-n1cnc(C(=O)NC(CN)c2cccc(Cl)c2)c1 (stereo not drawn) [Example 256, N-(2-amino-1-(3-chlorophenyl)ethyl)-1-(2-((4-fluoro-3-morpholinophenyl)amino)-5-methylpyrimidin-4-yl)-1H-imidazole-4-carboxamide] |  | ≤ 100 nM | ≤ 100 nM | 
Cc1cnc(NC2CCOCC2)nc1-n1cnc(C(=O)NC(CO)c2cccc(C(C)(C)C)c2)c1 (stereo not drawn) [Example 258, N-(1-(3-(tert-butyl)phenyl)-2-hydroxyethyl)-1-(5-methyl-2-((tetrahydro-2H-pyran-4-yl)amino)pyrimidin-4-yl)-1H-imidazole-4-carboxamide] |  | 500 to 2500 nM | 250 to 500 nM | 
Cc1cnc(N[C@@H]2CCOC2)nc1-n1cnc(C(=O)N[C@H](CN)c2cccc(Cl)c2)c1 [Example 264, N-((S)-2-amino-1-(3-chlorophenyl)ethyl)-1-(5-methyl-2-(((R)-tetrahydrofuran-3-yl)amino)pyrimidin-4-yl)-1H-imidazole-4-carboxamide] |  | 100 to 250 nM | ≤ 100 nM | 
Cc1cnc(N[C@@H]2CCOC2)nc1-n1cnc(C(=O)N[C@H](CO)c2cccc(Cl)c2)c1 [Example 265, N-((S)-1-(3-chlorophenyl)-2-hydroxyethyl)-1-(5-methyl-2-(((R)-tetrahydrofuran-3-yl)amino)pyrimidin-4-yl)-1H-imidazole-4-carboxamide] |  | 100 to 250 nM | 250 to 500 nM | 
Cc1cnc(Nc2ccc3c(c2)OCO3)nc1-n1cnc(C(=O)N[C@H](CN)c2cccc(Cl)c2)c1 [Example 266, (S)-N-(2-amino-1-(3-chlorophenyl)ethyl)-1-(2-(benzo[d][1,3]dioxol-5-ylamino)-5-methylpyrimidin-4-yl)-1H-imidazole-4-carboxamide] |  | ≤ 100 nM | ≤ 100 nM | 
Cc1cnc(NC2CCOc3ccccc32)nc1-n1cnc(C(=O)N[C@H](CN)c2cccc(Cl)c2)c1 (stereo partly drawn) [Example 271, N-((S)-2-amino-1-(3-chlorophenyl)ethyl)-1-(2-(chroman-4-ylamino)-5-methylpyrimidin-4-yl)-1H-imidazole-4-carboxamide] |  | ≤ 100 nM | ≤ 100 nM | 
Cc1cnc(Nc2cccc(N3CCOCC3)c2)nc1-n1cnc(C(=O)N[C@H](CN)c2cccc(Cl)c2)c1 [Example 272, (S)-N-(2-amino-1-(3-chlorophenyl)ethyl)-1-(5-methyl-2-((3-morpholinophenyl)amino)pyrimidin-4-yl)-1H-imidazole-4-carboxamide] |  | 100 to 250 nM | 250 to 500 nM | 
Cc1cnc(NC2CC(F)(F)C2)nc1-n1cnc(C(=O)N[C@@H](CN)c2cc(F)cc(Cl)c2)c1 [Example 289, (R)-N-(2-amino-1-(3-chloro-5-fluorophenyl)ethyl)-1-(2-((3,3-difluorocyclobutyl)amino)-5-methylpyrimidin-4-yl)-1H-imidazole-4-carboxamide] |  | > 2500 nM | 500 to 2500 nM | 
Cc1cnc(NC2CCOCC2)nc1-n1cnc(C(=O)NCc2cccc(Cl)n2)c1 [Example 307, N-((6-chloropyridin-2-yl)methyl)-1-(5-methyl-2-((tetrahydro-2H-pyran-4-yl)amino)pyrimidin-4-yl)-1H-imidazole-4-carboxamide] | 500 to 2500 nM |  | 500 to 2500 nM | 
Cc1cnc(NC2CCOCC2)nc1-n1cnc(C(=O)NC(C(N)=O)c2cccc(Cl)c2)c1 (stereo not drawn) [Example 312, N-(2-amino-1-(3-chlorophenyl)-2-oxoethyl)-1-(5-methyl-2-((tetrahydro-2H-pyran-4-yl)amino)pyrimidin-4-yl)-1H-imidazole-4-carboxamide] |  | > 2500 nM |  | 500 to 2500 nM
Cc1cnc(N[C@H]2CCOC2)nc1-n1cnc(C(=O)NCc2cc(Cl)cc(Cl)c2)c1 [Example 313, (S)-N-(3,5-dichlorobenzyl)-1-(5-methyl-2-((tetrahydrofuran-3-yl)amino)pyrimidin-4-yl)-1H-imidazole-4-carboxamide] |  | > 2500 nM |  | 250 to 500 nM
Cc1cnc(N[C@H]2CCOC2)nc1-n1cnc(C(=O)NCc2ccc(Cl)c(Cl)c2)c1 [Example 314, (S)-N-(3,4-dichlorobenzyl)-1-(5-methyl-2-((tetrahydrofuran-3-yl)amino)pyrimidin-4-yl)-1H-imidazole-4-carboxamide] |  | > 2500 nM |  | 250 to 500 nM

Now from value to compound:

IC50 [1] | IC50 [2] | IC50 ([3]; phospho-RSK1(S380)) | IC50 [3] | Structure (SMILES)
≤ 100 nM | ≤ 100 nM | ≤ 100 nM |  | Cc1cnc(NC2CCOCC2)nc1-n1cnc(C(=O)NC(CN)c2cccc(Cl)c2)c1 (racemic) [Compound 225, N-(2-Amino-1-(3-chlorophenyl)ethyl)-1-(5-methyl-2-((tetrahydro-2H-pyran-4-yl)amino)pyrimidin-4-yl)-1H-imidazole-4-carboxamide]
 | > 2500 nM | 250 to 500 nM |  | Cc1cnc(NC2CCOCC2)nc1-n1cnc(C(=O)NC(CO)c2ccc(Cl)s2)c1 (stereo not drawn) [Example 257, N-(1-(5-chlorothiophen-2-yl)-2-hydroxyethyl)-1-(5-methyl-2-((tetrahydro-2H-pyran-4-yl)amino)pyrimidin-4-yl)-1H-imidazole-4-carboxamide]
 | > 2500 nM | > 2500 nM |  | Cc1cnc(NC(CO)CO)nc1-n1cnc(C(=O)N[C@H](CO)c2cccc(Cl)c2)c1 [Example 260, (S)-N-(1-(3-chlorophenyl)-2-hydroxyethyl)-1-(2-((1,3-dihydroxypropan-2-yl)amino)-5-methylpyrimidin-4-yl)-1H-imidazole-4-carboxamide]
 | > 2500 nM | 500 to 2500 nM |  | Cc1ccc(C(CO)NC(=O)c2cn(-c3nc(NC4CCOCC4)ncc3C)cn2)s1 (stereo not drawn) [Example 261, N-(2-hydroxy-1-(5-methylthiophen-2-yl)ethyl)-1-(5-methyl-2-((tetrahydro-2H-pyran-4-yl)amino)pyrimidin-4-yl)-1H-imidazole-4-carboxamide]
 | 500 to 2500 nM | ≤ 100 nM |  | Cc1cnc(Nc2ccc(F)cc2)nc1-n1cnc(C(=O)NCc2cccc(Cl)c2CO)c1 [Example 262, N-(3-chloro-2-(hydroxymethyl)benzyl)-1-(2-((4-fluorophenyl)amino)-5-methylpyrimidin-4-yl)-1H-imidazole-4-carboxamide]
 | 100 to 250 nM | 100 to 250 nM |  | Cc1cnc(NC2CCOCC2)nc1-n1cnc(C(=O)NC(CN)c2cccs2)c1 (stereo not drawn) [Example 267, N-(2-amino-1-(thiophen-2-yl)ethyl)-1-(5-methyl-2-((tetrahydro-2H-pyran-4-yl)amino)pyrimidin-4-yl)-1H-imidazole-4-carboxamide]
 | ≤ 100 nM | ≤ 100 nM |  | Cc1cnc(NC2COC2)nc1-n1cnc(C(=O)N[C@H](CN)c2cccc(Cl)c2)c1 [Example 268, (S)-N-(2-amino-1-(3-chlorophenyl)ethyl)-1-(5-methyl-2-(oxetan-3-ylamino)pyrimidin-4-yl)-1H-imidazole-4-carboxamide]
 | ≤ 100 nM | ≤ 100 nM |  | Cc1cnc(Nc2ccc3c(c2)OCO3)nc1-n1cnc(C(=O)NC(CN)c2cc(F)cc(Cl)c2)c1 (stereo not drawn) [Example 269, N-(2-amino-1-(3-chloro-5-fluorophenyl)ethyl)-1-(2-(benzo[d][1,3]dioxol-5-ylamino)-5-methylpyrimidin-4-yl)-1H-imidazole-4-carboxamide]
 | ≤ 100 nM | 100 to 250 nM |  | Cc1cnc(NC2CC(F)(F)C2)nc1-n1cnc(C(=O)NCc2cccc(Cl)c2CO)c1 [Example 273, N-(3-chloro-2-(hydroxymethyl)benzyl)-1-(2-((3,3-difluorocyclobutyl)amino)-5-methylpyrimidin-4-yl)-1H-imidazole-4-carboxamide]
 | ≤ 100 nM | ≤ 100 nM |  | Cc1cnc(NC2CC(F)(F)C2)nc1-n1cnc(C(=O)NC(CN)c2cc(F)cc(Cl)c2)c1 (stereo not drawn) [Example 278, N-(2-amino-1-(3-chloro-5-fluorophenyl)ethyl)-1-(2-((3,3-difluorocyclobutyl)amino)-5-methylpyrimidin-4-yl)-1H-imidazole-4-carboxamide]
 | ≤ 100 nM | ≤ 100 nM |  | Cc1cnc(NC2CC=CCC2)nc1-n1cnc(C(=O)N[C@H](CN)c2cccc(Cl)c2)c1 (stereo partly drawn) [Example 292, N-((S)-2-amino-1-(3-chlorophenyl)ethyl)-1-(2-(cyclohex-3-en-1-ylamino)-5-methylpyrimidin-4-yl)-1H-imidazole-4-carboxamide]
 | 500 to 2500 nM | 500 to 2500 nM |  | Cc1cnc(NC2CCOCC2)nc1-n1cnc(C(=O)NCc2ccccc2C(C)(C)O)c1 [Example 293, N-(2-(2-hydroxypropan-2-yl)benzyl)-1-(5-methyl-2-((tetrahydro-2H-pyran-4-yl)amino)pyrimidin-4-yl)-1H-imidazole-4-carboxamide]
 | > 2500 nM |  | 500 to 2500 nM | Cc1cnc(N[C@H]2CCOC2)nc1-n1cnc(C(=O)NCc2cccc(C(F)(F)F)c2)c1 [Example 311, (S)-1-(5-methyl-2-((tetrahydrofuran-3-yl)amino)pyrimidin-4-yl)-N-(3-(trifluoromethyl)benzyl)-1H-imidazole-4-carboxamide]
